Reference: patent US6949682B2, “Cinnamaldehyde derivatives inhibiting growth of tumor cell and regulating cell cycle, preparations and pharmaceutical compositions thereof” (Korea Research Institute of Bioscience and Biotechnology, priority 2003, dated 2005)

What was measured:
[1] = test system: HCT116 colon cancer cell; assay: Cell cycle distribution (Experimental Example 2), HCT116; type: cell-based, human; conditions: for Amount of cell (%) G0-G1 / Amount of cell (%) G2-M / Amount of cell (%) S: HCT116, 1 μM, 48 hours; for Holding of cancer cell in stage G2/M (in words): HCT116 and SW620, 1 μM, summary of table 3
Protocol: (§1) SW620 or HCT116 as colon cancer cell was inoculated in 100 mm plate to the amount of 2×10^6 cells. Then, cinnamaldehyde derivative of the present invention (compound 16 or compound 35) was added to the plate in the concentration of 1 μM. Thereafter, the colon cancer cell was incubated for 48 hours. Trypsin was added to the plate, to separate the colon cancer cell from the plate. And 5 ml of PBS (phosphate buffer solution) was added to the plate, to prepare the cell mixture. The cell mixture was centrifuged at 1,500 rpm for 5 min for two times, to remove trypsin from the mixture. The residue was washed with PBS for two times, thus the resulting supernatant was discarded. 1 ml of PBS and 3˜5 ml of cool ethanol(70%) was added to the resulting residue. The cell was fixed by being positioned at −20° C. for 12 hours. The fixed cell was centrifuged at 1,500 rpm for 5 min and washed with the cool PBS for two times to remove residual ethanol. RNase(10 μg/ml) was added to the fixed cell, to remove RNA. And DNA of the fixed cell was dyed with PI(propidium iodide, 50 μg/ml). After the fixed cell was positioned at 37° C. for 30 min, cell cycles of 20,000 cells were measured by using Becton-Dickinson FACS caliber (San Jose, Calif., USA).
(§2) For control group, the same procedure was accomplished except that DMSO was used in place of the cinnamaldehyde derivative.

[2] = test system: SW620 colon cancer cell; assay: Growth inhibition of SW620 colon cancer cell (GI50); type: cell-based, human; conditions: Homo sapiens, SW-620; concentration at which growth of SW620 colon cancer cell was inhibited to the 50%
Protocol: (§3) Colon cancer cell of human SW620(ATCC) or HCT116 (ATCC) was transferred to T25 flask(culture 7.5 ml) by RPMI1640 (Gibco/BR) medium or DMEM medium (Gibco/BR) containing 10% FBS (fetal bovine serum), respectively. Thereafter the cell was incubated for 12 hours at 37° C. in incubator. After the cell was incubated for 12 hours, 7.5 μl of DMSO was added to a culture used as control group, for the final concentration to be 0.1%. In order to use in experiment, samples of various concentrations were prepared by dissolving the cinnamaldehyde derivatives of the present invention in DMSO. 7.5 μl of the prepared samples was added to a culture used as experimental group. Cell of control or experimental group was incubated for 48 hours.
(§4) HCT116 GI50 (μM) and SW620 GI50 (μM) mean to be the concentrations at which growth of HCT116 and SW620 colon cancer cell was inhibited to the 50%, respectively.

[3] = test system: SW620 colon cancer cell; assay: Cell cycle distribution (Experimental Example 2), SW620; type: cell-based, human; conditions: SW620, 1 μM, 48 hours
Protocol: as §1, §2

[4] = test system: HCT116 colon cancer cell; assay: Growth inhibition of HCT116 colon cancer cell (GI50); type: cell-based, human; conditions: Homo sapiens, HCT-116; concentration at which growth of HCT116 colon cancer cell was inhibited to the 50%
Protocol: as §3, §4

[5] = test system: HCT116 colon cancer cell; assay: Cell cycle analysis (Experimental Example 1), HCT116; type: cell-based, human; conditions: HCT116, 1 μM, 48 hours, percentage of cells in G2/M
Protocol: as §3
(§5) For cell cycle analysis, incubated cell was removed from medium. Thereafter the incubated cell was separated from the flask by trypsin. Thus the cell was centrifuged at 300 g for 5 min. The cell was washed with phosphate buffer solution (PBS) to remove the residue medium from the cell. 3 ml of ethanol (70%) was added to the cell. The cell was fixed by being positioned at −20° C. for 12 hours. The fixed cell was centrifuged at 300 g for 3 min and washed with the cold PBS for two times to remove residual ethanol. The cell solution prepared by adding 500 μl of PBS to the cell was well mixed to produce the homogeneous state. 100 μg/ml RNase A 50 μl was added to the cell solution, thereafter the resulting cell solution was positioned at 37° C. for 30 min. The chromosomal DNA was stained by further adding 1 mg/ml propidium iodide (soluble in PBS) thereto.
(§6) Distribution of cell cycle of 20,000 stained cells were measured by using Becton-Dickinson FACS caliber (San Jose, Calif., USA).

[6] = test system: SW620 colon cancer cell; assay: Cell cycle analysis (Experimental Example 1), SW620; type: cell-based, human; conditions: SW620, 1 μM, 48 hours, percentage of cells in G2/M
Protocol: as §3, §5, §6

SMILES | melting point [°C] | Amount of cell (%) G0-G1 [1] [%] | Amount of cell (%) G2-M [1] [%] | Amount of cell (%) S [1] [%] | Holding of cancer cell in stage G2/M (in words) [1] | GI50 [2] [µM] | Amount of cell (%) G0-G1 [3] [%] | Amount of cell (%) G2-M [3] [%] | Amount of cell (%) S [3] [%] | GI50 [4] [µM] | G2/M at 1 μM(%) HCT116 [5] [%] | G2/M at 1 μM(%) SW620 [6] [%]
CN1CCN(c2ccccc2/C=C(C=O)/C(C=O)=C/c2ccccc2N2CCN(C)CC2)CC1 [Compound 35, 2,3-bis-(2-(N-methylpiperazine)benzylidene)succinaldehyde] | 218 to 220 | 15.52 | 52.11 | 32.37 | held a cancer cell in the stage G2/M | 0.72 | 8.74 | 78.53 | 12.73 | 5.23 | 52 | 79
CCCOc1ccccc1/C=C(C=O)/C(C=O)=C/c1ccccc1OCCC [Compound 13, 2,3-bis(2-propyloxy-benzylidene)succinaldehyde] | 109 to 110 | – | – | – | – | 2.11 | – | – | – | 5.28 | 65 | 62
CCCOc1ccc(C=C(C=O)C(C=O)=Cc2ccc(OCCC)c(OC)c2)cc1OC [Compound 23, 2,3-bis-(4-propyloxy-3-methoxybenzylidene)succinaldehyde] | 95 to 96 | – | – | – | – | 2.28 | – | – | – | 0.62 | 50 | 56
COc1ccc(C=C(C=O)C(C=O)=Cc2ccc(OC)cc2)cc1 [Compound 12, 2,3-bis-(4-methoxy-benzylidene)succinaldehyde] | 204 to 207 | – | – | – | – | 10.2 | – | – | – | 9.62 | 59 | 57
O=CC(=Cc1ccccc1OCc1ccccc1)C(C=O)=Cc1ccccc1OCc1ccccc1 [Compound 16, 2,3-bis-(2-benzyloxy-benzylidene)succinaldehyde] | 120 to 121 | 22.36 | 43.29 | 34.35 | held a cancer cell in the stage G2/M | 0.63 | 6.64 | 80.21 | 13.15 | 1.41 | 43 | 80
COc1cc(C=C(C=O)C(C=O)=Cc2ccc(O)c(OC)c2)ccc1O [Compound 7, 2,3-bis-(4-hydroxy-3-methoxy-benzylidene)succinaldehyde] | 177 to 178 | – | – | – | – | 3.53 | – | – | – | 7.87 | 30 | 38
O=CC(=Cc1ccc(OC(=O)c2ccc(Br)cc2)cc1)C(C=O)=Cc1ccc(OC(=O)c2ccc(Br)cc2)cc1 [Compound 34, 2,3-bis-(4-(4-bromobenzoyloxy)benzylidene)succinaldehyde] | 223 to 225 | – | – | – | – | 16.7 | – | – | – | 30.4 | 60 | 62
COc1ccc(COc2cccc(C=C(C=O)C(C=O)=Cc3cccc(OCc4ccc(OC)cc4)c3)c2)cc1 [Compound 37, 2,3-bis-(3-(4-methoxybenzyloxy)-benzylidene)succinaldehyde] | 117 to 119 | – | – | – | – | 5.1 | – | – | – | 3.4 | 35 | 46
O=CC(=Cc1ccccc1OCc1ccc([N+](=O)[O-])cc1)C(C=O)=Cc1ccccc1OCc1ccc([N+](=O)[O-])cc1 [Compound 19, 2,3-bis-(2-(4-nitrobenzyloxy)-benzylidene)succinaldehyde] | 116 to 117 | – | – | – | – | 7.09 | – | – | – | 5.19 | 32 | 39
CC(C)Oc1ccccc1C=C(C=O)C(C=O)=Cc1ccccc1OC(C)C [Compound 15, 2,3-bis-(2-isopropyloxy-benzylidene)succinaldehyde] | 109 to 110 | – | – | – | – | 5.34 | – | – | – | 5.34 | 70 | 69
O=CC(=Cc1ccccc1Cl)C(C=O)=Cc1ccccc1Cl [Compound 3, 2,3-bis-(2-chlorobenzylidene)succinaldehyde] | 177 to 178 | – | – | – | – | 0.91 | – | – | – | 0.91 | 40 | 47
COc1ccccc1C=C(C=O)C(C=O)=Cc1ccccc1OC [Compound 5, 2,3-bis-(2-methoxybenzylidene)succinaldehyde] | 163 to 164 | – | – | – | – | 1.55 | – | – | – | 3.72 | 55 | 50
O=CC(=Cc1ccccc1OCc1ccc(Br)cc1)C(C=O)=Cc1ccccc1OCc1ccc(Br)cc1 [Compound 18, 2,3-bis-(2-(4-bromobenzyloxy)-benzylidene)succinaldehyde] | 210 to 211 | – | – | – | – | 4.64 | – | – | – | 2.63 | 75 | 70
O=CC(=Cc1ccc(OCc2ccc(Cl)cc2)cc1)C(C=O)=Cc1ccc(OCc2ccc(Cl)cc2)cc1 [Compound 38, 2,3-bis-(4-(4-chlorobenzyloxy)-benzylidene)succinaldehyde] | 208 to 209 | – | – | – | – | 2.2 | – | – | – | 3.8 | 44 | 53
